From paper PMC3282108 (ACS Chemical Biology, 2008)

Tests used:
[1] = tested on: BT474 breast cancer cells; experiment: WST-1 colorimetric cell proliferation assay, BT474; format: cell-based, human; details: WST-1, concentration-dependent cell killing
HER2 = experiment: Western blot of HER2 levels in BT474 cells; format: cell-based, human; details: compound 8 1 μM, 6, 12, 24 h, 17-AAG 0.178 μM
Hsp70 = experiment: Western blot of Hsp70 levels in BT474 and SKBR3 cells; format: cell-based, human; details: 17-AAG 0.178 μM, compound 8 1 or 5 μM
[2] = cited from earlier work
cancer patients = details: cited from earlier work

With `C=CCNC1=C2C[C@@H](C)C[C@H](OC)[C@H](O)[C@@H](C)/C=C(\C)[C@H](OC(N)=O)[C@@H](OC)/C=C\C=C(/C)C(=O)NC(=CC1=O)C2=O` [Compound 17-AAG, 17-Allylamino-17-demethoxygeldanamycin] the “cell killing selectivity, BT474 versus SKBR3 and MCF-12F” value [1] was “significantly more potent in killing BT474 cells than SKBR3 and normal cells”, the “HER2 levels in BT474 cells” value (HER2) was “time-dependent decrease in HER2 levels” and the “Hsp70 levels” value (Hsp70) was “significant increase in Hsp70 levels”. The “solubility in aqueous solution” value [2] was “low solubility in aqueous solution” and the “most common dose-limiting side effects” value (cancer patients) was “anorexia, nausea, diarrhea, hepatoxicity, fatigue, thrombocytopenia, and anemia”.
